In series [1] the target is T1, S1R (Rattus norvegicus, UniProt Q9R0C9).
T1 construct: liver homogenates from male Sprague Dawley rats; from tissue; host or cells: rat liver homogenate (male Sprague Dawley)
Briefly: S1R radioligand binding assay ([3H]-(+)-pentazocine, rat liver homogenates). The settings on record: mean ± SD of at least two experiments in duplicate.

A further series concerns the target T2, S2R (Rattus norvegicus, UniProt Q5U3Y7).
T2 construct: liver homogenates from male Sprague Dawley rats; from tissue; host or cells: rat liver homogenate (male Sprague Dawley)
T2 sequence (Q5U3Y7 1-176): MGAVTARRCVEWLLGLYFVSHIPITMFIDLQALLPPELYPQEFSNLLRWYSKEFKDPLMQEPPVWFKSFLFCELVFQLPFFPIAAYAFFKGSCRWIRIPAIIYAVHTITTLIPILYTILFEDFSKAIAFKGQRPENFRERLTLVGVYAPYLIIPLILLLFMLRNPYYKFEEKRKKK
Briefly: S2R radioligand binding assay ([3H]DTG with (+)-pentazocine mask, rat liver homogenates).

Series [2] has as its system human corneal epithelial cells (HCE). Put plainly: LDH cytotoxicity assay in HCE cells. Type of series: cell-based. The settings on record: 100 μM, 20 h incubation. As for the experimental part:
The permeability of cellular membranes following the exposures was determined by measuring the amount of released LDH (lactate dehydrogenase) enzyme from HCE cells. The commercial CytoTox 96 kit (Promega, Fitchburg, WI, USA) was used according to the manufacturer’s instructions. To measure maximal LDH release, 10 μL of 10× lysis solution was added to control wells 45 min before adding the CytoTox 96 reagent. To measure the amount of released LDH, 50 μL of each well was transferred to a fresh 96-well plate and 50 μL of CytoTox 96 reagent was added followed by a 30 min incubation period. Finally, 50 μL of stop solution was added and absorbance was recorded at 490 nm (Synergy H1 Hybrid Reader, BioTek, Winooski, VT, USA). Absorbance values were corrected by background values, and the percentage of LDH release was calculated using the following formula: 100 × experimental LDH release optical density (OD)/maximum LDH release OD.

Series [3] concerns capsaicin-induced mechanical hypersensitivity (allodynia) in mice. Put plainly: Capsaicin-induced mechanical hypersensitivity (allodynia) in mice. Type of series: in vivo. The following applies: for response latency to mechanical stimulation: 40 mg/kg s.c., non-sensitized 44.19 ± 2.59 s, capsaicin + solvent 13.51 ± 1.93 s, mean ± SEM; for antiallodynic effect on capsaicin-induced allodynia (in words): 30 min before capsaicin; for dose of maximum antiallodynic effect: capsaicin-induced mechanical hypersensitivity. As for the experimental part: We tested the effect of several of our compounds in capsaicin-induced mechanical hypersensitivity (allodynia) in mice (Figure 5). The increase in pain sensitivity in the area surrounding capsaicin injection results from central sensitization, and this process plays a pivotal role in chronic pain development and maintenance.[29]
Experiments were performed in female WT-CD1 mice (Charles River, Barcelona, Spain) weighing 25–30 g. […] The behavioral test was conducted during the light phase (from 9:00 to 15:00 h) and randomly throughout the estrous cycle.
Drug solutions were prepared immediately before the start of the experiments and injected s.c. in a volume of 5 mL/kg into the interscapular area. […] To test for the effects of PRE-084 on the antiallodynia induced by the other drugs, it was administered 5 min before the latter. Capsaicin was dissolved in 1% DMSO in physiological sterile saline to a concentration of 0.05 μg/μL. […] Control animals were injected with the same volume of the vehicle of capsaicin.
Animals were placed for 2 h in individual black-walled test compartments, which were situated on an elevated mesh-bottom platform with a 0.5 cm^2 grid to provide access to the ventral surface of the hind paws. […] Briefly, a nonflexible filament (0.5 mm diameter) was electronically driven into the ventral side of the right hind paw at least 5 mm away from the site of the injection toward the fingers. The intensity of the stimulation was set at 0.5g force.[30] When a paw withdrawal response occurred, the stimulus was automatically terminated, and the response latency was recorded. The filament was applied three times, separated by intervals of 0.5 min. The mean value of the three trials was considered the withdrawal latency time of the animal. A cutoff time of 50 s was used in each trial.

Series [4] has as its system human corneal epithelial cells (HCE). Put plainly: MTT cell viability assay in HCE cells. The settings on record: 20 h incubation; for HCE cells cell viability reduction (MTT): 100 μM. (In general: Tetrazolium assays rely on reduction of a dye to a coloured formazan, in cell work by metabolically active cells.)
Series [5] can be described thus: Metabolic stability in mouse liver microsomes. Type of series: in vitro ADME. The procedure:
(§1) Moreover, in vitro metabolic studies were performed using mouse and human liver microsomes. Following incubation at 0.1 μM with the liver microsomes for 1 h, reaction samples were analyzed by LC–MS/MS at different time points (0, 15, 30, 45, 60 min).
(§2) In vitro metabolic stability studies were performed by Eurofins Cerep Quality Control Unit (France) using mouse and human liver microsomes fractions in accordance with their validation Standard Operating Procedure.
For orientation: Liver microsomes are a subcellular fraction often used to study metabolism.

For a further series, the target named is hERG (Homo sapiens, UniProt Q12809). Briefly: hERG activity (Qube APC electrophysiology, CHO-K1 cells expressing human ERG). Type of series: cell-based. The following applies: CHO-K1 cells that express human ERG, six concentrations 10^-10 to 10^-5 M.
The target in series [6] is T3, human serotonin transporter (Homo sapiens, UniProt P31645).
T3 construct: host or cells: HEK-293 cells
Put plainly: SERT binding ([3H]Paroxetine).

Series [7] addresses T1, S1R. Put plainly: S1R functional assay (radioligand binding with/without phenytoin, rat liver).
The next series can be described thus: Human plasma stability. The following applies: pH 7.4, 37 °C, read-out: plasma stability T1/2. Type of series: in vitro ADME.
In series [8] the target is T4, human serotonin 5-HT2A receptor (Homo sapiens, UniProt P28223).
T4 construct: host or cells: CHO-K1 cells
Briefly: 5-HT2A receptor binding ([3H]Ketanserin).

Series [9] is described as follows: Water solubility (UHPLC-PDA). Type of series: physicochemical. The settings on record: free base, ultrapure water, rt.
A short description of series [10]: Metabolic stability in human liver microsomes. Type of series: in vitro ADME. As for the experimental part: as §1, §2
Series [11] is described as follows: Chemical stability in phosphate buffer pH 7.4. Type of series: physicochemical. The settings on record: phosphate buffer pH 7.4, 37 °C; read-out: chemical stability T1/2.
For the next series, the system named is mice. Briefly: Rotarod test (motor coordination). The following applies: 9d 1.25 mg/kg s.c., pregabalin 60 mg/kg s.c.; 45-240 min after administration. Type of series: in vivo. As for the experimental part:
The rotarod test is the most standard test to assess motor function and coordination in rodents. It consists of a rotating rod where the animal is placed, and the latency to fall is measured. Drugs that negatively affect motor coordination decrease the latency to fall.[2]
Motor coordination was assessed with an accelerating rotarod (Cibertec, Madrid, Spain), as previously described.[34] Briefly, mice were required to walk against the motion of an elevated rotating drum at increasing speed (4–80 rpm over 5 min), and the latency to fall was recorded with a cut-off time of 300 s. Mice were given three training sessions 24 h before drug testing. On the day of the test, rotarod latencies were measured immediately before the drug or vehicle (saline 5% DMSO) was administered (time 0) and several times (45, 90, 150, and 240 min) after the s.c. drug administration. As a comparison drug, we used pregabalin (60 mg/kg, s.c.), which has been reported to impair rotarod performance.[34]
(Falling from the rotarod earlier than controls is read as motor impairment.)

Several values for one entry are separate records, joined by “and”; a condition that tells them apart may be missing. Equal values may be shown once. Where a name gives a salt, the structure may show the parent alone.

T1 sequence (Q9R0C9 whole entry): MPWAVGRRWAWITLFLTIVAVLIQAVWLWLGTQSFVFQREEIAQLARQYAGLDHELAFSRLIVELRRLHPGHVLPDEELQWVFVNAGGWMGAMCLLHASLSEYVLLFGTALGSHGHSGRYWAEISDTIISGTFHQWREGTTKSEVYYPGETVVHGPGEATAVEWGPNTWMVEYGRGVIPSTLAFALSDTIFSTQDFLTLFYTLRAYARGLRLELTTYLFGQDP
T3 sequence (P31645 whole entry): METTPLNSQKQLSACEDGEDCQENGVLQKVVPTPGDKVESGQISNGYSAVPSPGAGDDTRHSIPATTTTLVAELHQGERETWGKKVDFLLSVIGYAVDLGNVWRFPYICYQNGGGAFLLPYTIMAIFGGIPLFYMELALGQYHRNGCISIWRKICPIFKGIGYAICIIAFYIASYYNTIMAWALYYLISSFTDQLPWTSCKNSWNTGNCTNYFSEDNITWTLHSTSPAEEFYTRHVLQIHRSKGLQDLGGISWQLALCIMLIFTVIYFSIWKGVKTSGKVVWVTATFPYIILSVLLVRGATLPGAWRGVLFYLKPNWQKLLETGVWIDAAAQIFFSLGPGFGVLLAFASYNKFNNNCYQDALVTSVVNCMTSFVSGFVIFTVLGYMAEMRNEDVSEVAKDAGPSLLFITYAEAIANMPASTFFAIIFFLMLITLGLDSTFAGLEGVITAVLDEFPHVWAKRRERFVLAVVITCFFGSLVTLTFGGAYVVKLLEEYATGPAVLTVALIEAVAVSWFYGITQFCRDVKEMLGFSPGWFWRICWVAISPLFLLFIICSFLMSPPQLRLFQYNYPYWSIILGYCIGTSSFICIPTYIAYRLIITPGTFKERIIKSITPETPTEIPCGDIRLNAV
T4 sequence (P28223 whole entry): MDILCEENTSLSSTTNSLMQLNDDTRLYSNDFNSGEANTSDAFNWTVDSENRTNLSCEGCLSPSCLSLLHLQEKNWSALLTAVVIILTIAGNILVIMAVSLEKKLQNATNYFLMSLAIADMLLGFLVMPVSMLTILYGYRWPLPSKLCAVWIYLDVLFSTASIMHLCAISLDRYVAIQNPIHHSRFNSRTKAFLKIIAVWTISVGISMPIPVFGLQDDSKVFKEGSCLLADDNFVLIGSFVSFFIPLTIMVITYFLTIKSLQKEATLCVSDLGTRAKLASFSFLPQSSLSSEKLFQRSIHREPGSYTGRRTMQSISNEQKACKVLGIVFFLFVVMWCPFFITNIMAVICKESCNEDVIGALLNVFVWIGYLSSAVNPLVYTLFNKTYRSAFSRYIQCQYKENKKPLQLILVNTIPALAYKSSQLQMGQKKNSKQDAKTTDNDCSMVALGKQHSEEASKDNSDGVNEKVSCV
hERG, sequence (Q12809 whole entry): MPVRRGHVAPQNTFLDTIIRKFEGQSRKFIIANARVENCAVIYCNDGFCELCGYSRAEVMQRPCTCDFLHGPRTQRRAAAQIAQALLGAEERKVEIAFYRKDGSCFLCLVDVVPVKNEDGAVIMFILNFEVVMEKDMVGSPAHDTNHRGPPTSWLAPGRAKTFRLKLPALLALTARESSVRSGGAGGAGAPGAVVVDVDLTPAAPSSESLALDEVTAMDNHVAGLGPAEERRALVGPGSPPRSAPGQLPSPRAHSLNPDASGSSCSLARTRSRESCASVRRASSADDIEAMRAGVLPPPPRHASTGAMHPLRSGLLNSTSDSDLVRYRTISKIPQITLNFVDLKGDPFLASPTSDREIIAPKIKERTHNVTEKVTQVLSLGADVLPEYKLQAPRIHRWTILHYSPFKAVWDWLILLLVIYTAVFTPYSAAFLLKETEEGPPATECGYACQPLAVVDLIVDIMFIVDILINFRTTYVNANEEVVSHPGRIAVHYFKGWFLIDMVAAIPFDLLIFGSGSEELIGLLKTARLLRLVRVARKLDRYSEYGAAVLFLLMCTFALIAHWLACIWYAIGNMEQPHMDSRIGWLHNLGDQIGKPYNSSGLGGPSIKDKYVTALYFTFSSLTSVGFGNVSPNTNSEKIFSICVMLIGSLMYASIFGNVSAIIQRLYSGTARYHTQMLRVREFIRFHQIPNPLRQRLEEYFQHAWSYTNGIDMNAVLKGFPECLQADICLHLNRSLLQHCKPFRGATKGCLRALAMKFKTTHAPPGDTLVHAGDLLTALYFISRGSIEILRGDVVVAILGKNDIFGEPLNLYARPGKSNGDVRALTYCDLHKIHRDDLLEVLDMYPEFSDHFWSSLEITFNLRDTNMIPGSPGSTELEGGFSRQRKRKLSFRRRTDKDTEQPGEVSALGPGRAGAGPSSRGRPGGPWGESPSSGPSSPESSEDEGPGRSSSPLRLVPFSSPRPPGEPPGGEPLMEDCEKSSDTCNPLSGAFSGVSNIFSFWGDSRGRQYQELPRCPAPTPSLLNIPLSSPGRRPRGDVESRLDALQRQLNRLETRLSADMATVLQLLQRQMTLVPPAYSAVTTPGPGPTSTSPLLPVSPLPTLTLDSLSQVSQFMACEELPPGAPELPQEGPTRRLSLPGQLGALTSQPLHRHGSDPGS

Consider `CC(C)(C)OC(=O)N1CCC2(CCN(c3ccccc3)C2)C1` (stereo not shown) [6a, tert-Butyl-7-phenyl-2,7-diazaspiro[4.4]nonane-2-carboxylate], for which the figures for the inhibitory constant (Ki) on S1R [1] and on S2R were 40.7 ± 0.95 nM and 76.1 ± 1.2 nM, respectively.
With `c1ccc(CCN2CCC3(CCN(c4ccccc4)C3)C2)cc1` (stereo not shown) [8a, 2-Phenethyl-7-phenyl-2,7-diazaspiro[4.4]nonane], the “HCE cells cytotoxicity (LDH release)” value in series [2] came to 16%. Moreover, the “response latency to mechanical stimulation” value in [3] was determined as 30.28 ± 5.02 s. For the same compound, in [3] (s.c.), the “antiallodynic effect on capsaicin-induced allodynia (in words)” value (“antiallodynic effect … (in words)” for short) was “dose-dependent antiallodynic effects” and the “dose of maximum antiallodynic effect” value was found to be 20 mg/kg. In series [4], the “HCE cells cell viability reduction (MTT)” value is 50%.
For the compound `O=[N+]([O-])c1ccc(N2CCC3(CCN(CCc4ccccc4)C3)C2)cc1` (stereo not shown) [9a, 2-(4-Nitrophenyl)-7-phenethyl-2,7-diazaspiro[4.4]nonane], the “HCE cells cytotoxicity (LDH release)” value in series [2] is given as 23%. Also, in series [3] (s.c.), the “dose from which significant antiallodynic effects are seen” value is recorded as 5 mg/kg; the “antiallodynic effect … (in words)” value was “dose-dependent and full reversal of capsaicin-induced allodynia”; the “dose of maximum antiallodynic effect” value stood at 10 mg/kg.
As to `N#Cc1ccc(N2CCC3(CCN(CCc4ccccc4)C3)C2)cc1` (stereo not shown) [9d, 4-(7-Phenethyl-2,7-diazaspiro[4.4]nonan-2-yl)benzonitrile], the figures for the intrinsic metabolic clearance (microsomal CLint) at 1 h, 0.1 µM in series [5] (1 h incubation) and in series [10] (1 h incubation) were 124 µL/min/mg and 127 µL/min/mg, respectively. For the same compound, the half-life at 1 h, 0.1 µM is 56 min in [5] (1 h incubation, read-out: mouse liver microsomes T1/2) and 55 min in [10] (1 h incubation, read-out: human liver microsomes T1/2). Also, the half-life at 0.1 μM in series [5] (read-out: mouse liver microsomes metabolic half-time (T1/2) (converted)) and in series [10] (read-out: human liver microsomes metabolic half-time (T1/2) (converted)) was ~60 min in each case. This compound also registered an IC50 at hERG of 85 nM. Moreover, in series [2], the “HCE cells cytotoxicity (LDH release)” value turned out to be 18%. Moreover, the inhibition at 1 µM in series [6] and in [8] was < 50% each time. The SERT % inhibition in [6] (at 1 μM) is 39%. Further, the S1R functional profile entry on S1R [7] is given as “antagonist”. Besides, the half-life (in the series “Human plasma stability”; in [11]) was > 1440 min each time. Further, the “effect of PRE-084 on the antiallodynic effect of the compound” value in series [3] (PRE-084 32 mg/kg s.c. given 5 min before the compound at its dose of maximum effect) is on record as “fully reversed”. The “antiallodynic effect … (in words)” value in series [3] (s.c.) is “dose-dependent and full reversal of capsaicin-induced allodynia”. The compound further showed a 5-HT2A % inhibition in series [8] (at 1 μM) of 42%. Moreover, the “HCE cells cell viability reduction (MTT)” value in [4] came out at 28%. In addition, the solubility at 24 h in series [9] is 710 µg/mL and 2140 µM. In the series with mice, the “latency to fall from the rotarod (in words)” value is recorded as “no change in the latency to fall”.
For `c1ccc(CCN2CCC3(CCN(CCc4ccccc4)C3)C2)cc1` [14a, 2,7-Diphenethyl-2,7-diazaspiro[4.4]nonane], the “HCE cells cytotoxicity (LDH release)” value in [2] is reported as 13%. In addition, the “response latency to mechanical stimulation” value in series [3] is 26.55 ± 3.55 s. Moreover, in series [3] (s.c.), the “antiallodynic effect … (in words)” value is recorded as “dose-dependent antiallodynic effects” and the “dose of maximum antiallodynic effect” value turned out to be 20 mg/kg. In addition, the “HCE cells cell viability reduction (MTT)” value in series [4] turned out to be 56%.
For the compound `O=C(Cc1ccc(Cl)c(Cl)c1)N1CCC2(CCN(CCc3ccccc3)C2)C1` (stereo not shown) [15a, 2-(3,4-Dichlorophenyl)-1-(7-phenethyl-2,7-diazaspiro[4.4]nonan-2-yl)ethan-1-one], in series [3] (s.c.), the “antiallodynic effect … (in words)” value is “dose-dependent and full antiallodynic effect”; the “dose of maximum antiallodynic effect” value worked out at 40 mg/kg. This compound also had an inhibition constant Ki on S1R [1] of 7.5 ± 1 nM.
`CN1CCN(CCc2ccc(Cl)c(Cl)c2)CC1` [BD1063, 1-[2-(3,4-dichlorophenyl)ethyl]-4-methylpiperazine dihydrochloride, reference compound] registered a Ki on S1R [1] of 14 ± 2.7 nM.
For the compound `Cl.O=C(OCCN1CCOCC1)C1(c2ccccc2)CCCCC1` [PRE-084, reference compound], the “HCE cells cell viability reduction (MTT)” value in series [4] is on record as 58%. For the same compound, the “concentration above which cell viability is statistically significantly reduced (MTT)” value in [4] (HCE cells) is given as “above 20 μM”.
For `CC(C)C[C@H](CN)CC(=O)O` [pregabalin, reference compound], in the series with mice, the “latency to fall from the rotarod (in words)” value is “markedly reduced rotarod latencies”.

As a reminder, the Ki is a measure of affinity in units of concentration, obtained from inhibition or displacement. A low value points to higher affinity. By microsomal CLint is commonly meant the rate of metabolic loss divided by the concentration. A lower microsomal CLint goes with greater metabolic stability. Usually IC50 stands for the point on the concentration scale where inhibition reaches its midpoint. A low value points to inhibition by little substance. Usually inhibition stands for the percentage by which the read-out fell short of the control. Lower therefore signals a weak effect. A word on the solubility: it is the dissolved amount per volume that the medium holds. The low end stands for little dissolved substance, the high end for much dissolved substance.

These data come from publication PMC10461227, “Discovery of AD258 as a Sigma Receptor Ligand with Potent Antiallodynic Activity” (Journal of Medicinal Chemistry, 2023).
